PMC6272341, “Synthesis and Biological Evaluation of N-Alkoxyphenyl-3-hydroxynaphthalene-2-carboxanilides” (Molecules, 2015)
Converted amounts (≈) assume the structure as drawn. “And” between values parts separate entries of the source, which are not always exact repeats. Identical values can stand only once. Like-named read-outs stand apart in the source and are kept apart here.

Assays:
[1] = tested on: M. tuberculosis H37Ra ATCC 25177; test: In vitro antimycobacterial evaluation, alamarBlue (MIC); assay type: cell-based; conditions: Mycobacterium tuberculosis, 168 h, read-out: MIC MT
Experimental: The evaluation of the in vitro antimycobacterial activity of the compounds was performed against M. tuberculosis H37Ra ATCC 25177 [25] and clinical isolate of M. avium subsp. paratuberculosis CIT03 [26], see Table 1. The activity of compounds was expressed as the minimum inhibitory concentration (MIC) that is defined for mycobacteria as a 90% or greater (IC90) reduction of growth in comparison with the control. The MIC/IC90 value is routinely and widely used in bacterial assays, being a standard detection limit according to the Clinical and Laboratory Standards Institute.
Mycobacterium tuberculosis H37Ra ATCC 25177 and well characterised clinical isolate M. avium subsp. paratuberculosis CIT03 were grown in Middlebrook broth (MB), supplemented with Oleic-Albumin-Dextrose-Catalase supplement (Becton Dickinson, Oxford, UK) and mycobactin J (2 μg/mL). Identification of these isolates was performed using biochemical and molecular protocols. At log phase growth, a culture sample (10 mL) was centrifuged at 15,000 rpm/20 min using a bench top centrifuge (Model CR 4-12, Jouan Inc., Winchester, VA, USA). Following removal of the supernatant, the pellet was washed in fresh Middlebrook 7H9GC broth and re-suspended in fresh supplemented MB (10 mL). The turbidity was adjusted to match McFarland standard No. 1 (3 × 10^8 cfu) with MB broth. A further 1:20 dilution of the culture was then performed in MB broth. The antimicrobial susceptibility of all three mycobacterial species was investigated in a 96-well plate format. In these experiments, sterile deionised water (300 µL) was added to all outer-perimeter wells of the plates to minimize evaporation of the medium in the test wells during incubation. Sample wells were composed of 100 µL of test compound dilution and 100 µL of the bacterial stock being tested against. Dilutions of each compound were prepared in duplicate. For all synthesized compounds, final concentrations ranged from 1000 μg/mL to 8 μg/mL. All compounds were prepared in DMSO and subsequent dilutions were made in supplemented MB. The plates were sealed with parafilm and incubated at 37 °C, for 7 days in the case of M. tuberculosis and 11 days in the case of M. avium subsp. paratuberculosis. Following incubation, a 10% addition of alamarBlue (AbD Serotec, Kidlington, UK) was mixed into each well and readings at 570 nm and 600 nm were taken, initially for background subtraction and subsequently after 24 h re-incubation. The background subtraction is necessary for strongly coloured compounds, where the colour may interfere with the interpretation of any colour change. For non-interfering compounds, a blue colour in the well was interpreted as an absence of growth and a pink colour was scored as growth. […] The MIC value is routinely and widely used in bacterial assays and is a standard detection limit according to the Clinical and Laboratory Standards Institute (CLSI,). Rifampicin (Sigma-Aldrich) was used as the standard as it is clinically used antimycobacterial drugs.

[2] = tested on: clinical isolate of M. avium subsp. paratuberculosis CIT03; test: as above; assay type: cell-based; conditions: Mycobacterium avium, 264 h, read-out: MIC MAP
[3] = tested on: photosynthetic electron transport in spinach chloroplasts; test: Inhibition of photosynthetic electron transport (PET), DCPIP photoreduction (Hill reaction); assay type: biochemical, spinach (Spinacia oleracea L.)
Experimental: The PET inhibiting activity of the compounds was expressed by IC50 values. […] The aqueous solubility of the para-substituted compounds was limited; therefore IC50 values could not be determined due to precipitation of compounds during experiment. […]
Chloroplasts were prepared from spinach (Spinacia oleracea L.) according to Masarovicova and Kralova. The inhibition of photosynthetic electron transport (PET) in spinach chloroplasts was determined spectrophotometrically (Genesys 6, Thermo Scientific Corporation), using an artificial electron acceptor 2,6-dichlorophenol-indophenol (DCPIP) according to Kralova et al., and the rate of photosynthetic electron transport was monitored as a photoreduction of DCPIP. The measurements were carried out in phosphate buffer (20.0 mM, pH 7.2) containing sucrose (0.4 M), MgCl2 (5.0 mM) and NaCl (15.0 mM). The chlorophyll content was 30 mg/L in these experiments and the samples were irradiated (~100 W/m^2 with 10 cm distance) with a halogen lamp (250 W) using a 4 cm water filter to prevent warming of the samples (suspension temperature 22 °C). The studied compounds were dissolved in DMSO due to their limited aqueous solubility. The applied DMSO concentration (up to 4%) had negligible effect on the photochemical activity in isolated spinach chloroplasts (observed differences in DCPIP photoreduction due DMSO addition were within experimental error). The inhibitory efficiency of the studied compounds was expressed by IC50 values, i.e., by molar concentration of the compounds causing 50% decrease in DCPIP photoreduction relative to the untreated control. […] All reagents used in this study were of analytical grade and were purchased from Sigma.

S. aureus ATCC 29213 = test: In vitro antibacterial susceptibility testing, broth dilution micro-method (MIC); conditions: Staphylococcus aureus, ATCC29213, 24 h, read-out: MIC SA
[4] = tested on: methicillin-resistant S. aureus clinical isolate MRSA 63718; test: as above; conditions: for MIC: Staphylococcus aureus, MRSA, read-out: MIC MRSA 63718, clinical isolate MRSA 63718
[5] = tested on: methicillin-resistant S. aureus clinical isolate SA 630; test: as above; conditions: 24 h; for MIC: Staphylococcus aureus, MRSA, read-out: MIC MRSA SA 630, clinical isolate MRSA SA 630, 37 °C, MH broth
[6] = tested on: methicillin-resistant S. aureus clinical isolate SA 3202; test: as above; conditions: 24 h; for MIC: Staphylococcus aureus, MRSA, read-out: MIC MRSA 3202, clinical isolate MRSA 3202, 37 °C, MH broth
[7] = tested on: human monocytic leukemia THP-1 cells; conditions: 24 h
[8] = M. tuberculosis H37Ra, 7 days, 37 °C, alamarBlue, MIC/IC90
[9] = M. avium subsp. paratuberculosis CIT03, 11 days, 37 °C, alamarBlue, MIC/IC90

| SMILES | MIC [1, 8] | MIC [2] | IC50 [3] | MIC (S. aureus ATCC 29213) | MIC ([4]; 24 h, 24 h, 37 °C, MH broth) | MIC [5] | MIC [6] | MIC [2, 9] | LD50 [7] | MIC [1] | activity fold higher than that of ampicillin ([4]; antibacterial activity against MRSA strains versus ampicillin) | MIC MRSA 63718 ([4]; clinical isolate MRSA 63718, 24 h, 37 °C, MH broth) | MIC MRSA SA 630 ([5]; clinical isolate MRSA SA 630, 37 °C, MH broth) | MIC MRSA 3202 ([6]; clinical isolate MRSA 3202, 37 °C, MH broth) |
| --- | --- | --- | --- | --- | --- | --- | --- | --- | --- | --- | --- | --- | --- | --- |
| CCCOc1cccc(NC(=O)c2cc3ccccc3cc2O)c1 [Compound 5b, 3-Hydroxy-N-(3-propoxyphenyl)naphthalene-2-carboxamide] | 778 µM (≈ 250 µg/mL) | 778 µM (≈ 250 µg/mL) | 4.8 µM | 796 µM (≈ 256 µg/mL) | 796 µM (≈ 256 µg/mL) | 796 µM (≈ 256 µg/mL) | 796 µM (≈ 256 µg/mL) |  |  |  |  |  |  |  |
| COc1cccc(NC(=O)c2cc3ccccc3cc2O)c1 [Compound 3b, 3-hydroxy-N-(3-methoxyphenyl)naphthalene-2-carboxamide] | 51 µM (≈ 15 µg/mL) |  | 53.4 µM | 873 µM (≈ 256 µg/mL) | 873 µM (≈ 256 µg/mL) | 873 µM (≈ 256 µg/mL) | 873 µM (≈ 256 µg/mL) | 426 µM (≈ 125 µg/mL) | >30 µM |  |  |  |  |  |
| CCOc1ccc(NC(=O)c2cc3ccccc3cc2O)cc1 [Compound 4c, N-(4-Ethoxyphenyl)-3-hydroxynaphthalene-2-carboxamide] | 813 µM (≈ 250 µg/mL) | 813 µM (≈ 250 µg/mL) |  | 832 µM (≈ 256 µg/mL) | 832 µM (≈ 256 µg/mL) | 832 µM (≈ 256 µg/mL) | 832 µM (≈ 256 µg/mL) |  | >30 µM |  |  |  |  |  |
| CCC(C)Oc1ccc(NC(=O)c2cc3ccccc3cc2O)cc1 (centres unmarked) [Compound 8c, N-[4-(But-2-yloxy)phenyl]-3-hydroxynaphthalene-2-carboxamide] | 89 µM (≈ 29.9 µg/mL) |  |  | 763 µM (≈ 256 µg/mL) | 763 µM (≈ 256 µg/mL) | 763 µM (≈ 256 µg/mL) | 763 µM (≈ 256 µg/mL) | 745 µM (≈ 250 µg/mL) | >30 µM |  |  |  |  |  |
| CC1(C)S[C@@H]2[C@H](NC(=O)[C@H](N)c3ccccc3)C(=O)N2[C@H]1C(=O)O [APC, ampicillin, reference compound] |  |  |  | 5.7 µM (≈ 1.99 µg/mL) | > 46 µM | > 46 µM | > 46 µM |  |  |  |  |  |  |  |
| CCCCOc1ccc(NC(=O)c2cc3ccccc3cc2O)cc1 [Compound 6c, N-(4-Butoxyphenyl)-3-hydroxynaphthalene-2-carboxamide] | 745 µM (≈ 250 µg/mL) | 745 µM (≈ 250 µg/mL) |  | 763 µM (≈ 256 µg/mL) | 763 µM (≈ 256 µg/mL) | 763 µM (≈ 256 µg/mL) | 763 µM (≈ 256 µg/mL) |  | >30 µM |  |  |  |  |  |
| O=C(Nc1ccccc1)c1cc2ccccc2cc1O [Compound 2, 3-Hydroxy-N-phenylnaphthalene-2-carboxamide] |  |  |  | 972 µM (≈ 256 µg/mL) | 972 µM (≈ 256 µg/mL) | 972 µM (≈ 256 µg/mL) | 972 µM (≈ 256 µg/mL) | 950 µM (≈ 250 µg/mL) | >30 µM | 950 µM (≈ 250 µg/mL) |  |  |  |  |
| CO[C@H]1/C=C/O[C@@]2(C)Oc3c(C)c(O)c4c(O)c(c(/C=N/N5CCN(C)CC5)c(O)c4c3C2=O)NC(=O)/C(C)=C\C=C\[C@H](C)[C@H](O)[C@@H](C)[C@@H](O)[C@@H](C)[C@H](OC(C)=O)[C@@H]1C [RIF, rifampicin, reference compound] | 10 µM (≈ 8.23 µg/mL) |  |  |  |  |  |  | 109 µM (≈ 89.7 µg/mL) |  |  |  |  |  |  |
| COc1ccccc1NC(=O)c1cc2ccccc2cc1O [Compound 3a, 3-hydroxy-N-(2-methoxyphenyl)naphthalene-2-carboxamide] | 51 µM (≈ 15 µg/mL) |  | 59.5 µM | 55 µM (≈ 16.1 µg/mL) | 55 µM (≈ 16.1 µg/mL) | 55 µM (≈ 16.1 µg/mL) | 55 µM (≈ 16.1 µg/mL) | 205 µM (≈ 60.1 µg/mL) |  |  |  |  |  |  |
| CCCOc1ccc(NC(=O)c2cc3ccccc3cc2O)cc1 [Compound 5c, 3-Hydroxy-N-(4-propoxyphenyl)naphthalene-2-carboxamide] | 778 µM (≈ 250 µg/mL) | 778 µM (≈ 250 µg/mL) |  | 796 µM (≈ 256 µg/mL) | 796 µM (≈ 256 µg/mL) | 796 µM (≈ 256 µg/mL) | 796 µM (≈ 256 µg/mL) |  | >30 µM |  |  |  |  |  |
| CCCOc1ccccc1NC(=O)c1cc2ccccc2cc1O [Compound 5a, 3-Hydroxy-N-(2-propoxyphenyl)naphthalene-2-carboxamide] | 778 µM (≈ 250 µg/mL) | 778 µM (≈ 250 µg/mL) | 128 µM | 12.4 µM (≈ 3.99 µg/mL) | 12 µM (≈ 3.86 µg/mL) | 12 µM (≈ 3.86 µg/mL) | 12 µM (≈ 3.86 µg/mL) |  |  |  | ~4 fold | 12.4 µM (≈ 3.99 µg/mL) | 12.4 µM (≈ 3.99 µg/mL) | 12.4 µM (≈ 3.99 µg/mL) |
| CN(C)C(=O)Nc1ccc(Cl)c(Cl)c1 [DCMU, 3-(3,4-dichlorophenyl)-1,1-dimethylurea, reference compound] |  |  | ~1.9 µM and 1.9 µM |  |  |  |  |  |  |  |  |  |  |  |
| COc1ccc(NC(=O)c2cc3ccccc3cc2O)cc1 [Compound 3c, 3-hydroxy-N-(4-methoxyphenyl)naphthalene-2-carboxamide] | 852 µM (≈ 250 µg/mL) | 852 µM (≈ 250 µg/mL) |  | 873 µM (≈ 256 µg/mL) | 873 µM (≈ 256 µg/mL) | 873 µM (≈ 256 µg/mL) | 873 µM (≈ 256 µg/mL) |  | >30 µM |  |  |  |  |  |
| CC(C)Oc1ccc(NC(=O)c2cc3ccccc3cc2O)cc1 [Compound 7c, 3-Hydroxy-N-[4-(prop-2-yloxy)phenyl]naphthalene-2-carboxamide] | 389 µM (≈ 125 µg/mL) |  |  | 796 µM (≈ 256 µg/mL) | 796 µM (≈ 256 µg/mL) | 796 µM (≈ 256 µg/mL) | 796 µM (≈ 256 µg/mL) | 778 µM (≈ 250 µg/mL) | >30 µM |  |  |  |  |  |
